Measured values reported in US7550456B2, “Substituted aryl cycloalkanoyl derivatives and methods of their use” (Wyeth, priority 2003, dated 2009).
Counter-ions that a name gives are not always drawn.

Biological target: T1, human hNET (Homo sapiens, UniProt P23975)
T1 construct: expressed in transfected cells; host or cells: MDCK-Net6 (MDCK cells, stably transfected)
Assay: Norepinephrine (NE) uptake assay in MDCK-Net6 cells
Type: cell-based
Conditions: 1 μM test compound, [3H]NE uptake, read-out: % Inhibition @ 1 μM (hNET)
Experimental: Cells were plated at 300,000/T75 flask and cells were split twice weekly. […] Cells were plated at 250,000 cells/T75 flask and split twice weekly.
Norepinephrine (NE) Uptake Assay
On day 1, cells were plated at 3,000 cells/well in growth medium and maintained in a cell incubator (37° C., 5% CO2). On day 2, growth medium was replaced with 200 μl of assay buffer (25 mM HEPES; 120 mM NaCl; 5 mM KCl; 2.5 mM CaCl2; 1.2 mM MgSO4; 2 mg/ml glucose (pH 7.4, 37° C.)) containing 0.2 mg/ml ascorbic acid and 10 μM pargyline. Plates containing cells with 200 μl of assay buffer were equilibrated for 10 minutes at 37° C. prior to addition of compounds. A stock solution of desipramine was prepared in DMSO (10 mM) and delivered to triplicate wells containing cells for a final test concentration of 1 μM. Data from these wells were used to define non-specific NE uptake (minimum NE uptake). Test compounds were prepared in DMSO (10 mM) and diluted in assay buffer according to test range (1 to 10,000 nM). Twenty-five microliters of assay buffer (maximum NE uptake) or test compound were added directly to triplicate wells containing cells in 200 μl of assay buffer. The cells in assay buffer with test compounds were incubated for 20 minutes at 37° C. […] The reaction was terminated by decanting the supernatant from the plate. The plates containing cells were washed twice with 200 μl assay buffer (37° C.) to remove free radioligand. The plates were then inverted, left to dry for 2 minutes, then reinverted and air-dried for an additional 10 minutes. The cells were lysed in 25 μl of 0.25 N NaOH solution (4° C.), placed on a shake table and vigorously shaken for 5 minutes. After cell lysis, 75 μl of scintillation cocktail was added to each well and the plates were sealed with film tape. The plates were returned to the shake table and vigorously shaken for a minimum of 10 minutes to ensure adequate partitioning of organic and aqueous solutions. The plates were counted in a Wallac Microbeta counter (PerkinElmer) to collect the raw cpm data.
For each experiment, a data stream of cpm values collected from the Wallac Microbeta counter was downloaded to a Microsoft Excel statistical application program. Calculations of EC50 values were made using the transformed-both-sides logistic dose response program written by Wyeth Biometrics Department.

T1 sequence (P23975 whole entry): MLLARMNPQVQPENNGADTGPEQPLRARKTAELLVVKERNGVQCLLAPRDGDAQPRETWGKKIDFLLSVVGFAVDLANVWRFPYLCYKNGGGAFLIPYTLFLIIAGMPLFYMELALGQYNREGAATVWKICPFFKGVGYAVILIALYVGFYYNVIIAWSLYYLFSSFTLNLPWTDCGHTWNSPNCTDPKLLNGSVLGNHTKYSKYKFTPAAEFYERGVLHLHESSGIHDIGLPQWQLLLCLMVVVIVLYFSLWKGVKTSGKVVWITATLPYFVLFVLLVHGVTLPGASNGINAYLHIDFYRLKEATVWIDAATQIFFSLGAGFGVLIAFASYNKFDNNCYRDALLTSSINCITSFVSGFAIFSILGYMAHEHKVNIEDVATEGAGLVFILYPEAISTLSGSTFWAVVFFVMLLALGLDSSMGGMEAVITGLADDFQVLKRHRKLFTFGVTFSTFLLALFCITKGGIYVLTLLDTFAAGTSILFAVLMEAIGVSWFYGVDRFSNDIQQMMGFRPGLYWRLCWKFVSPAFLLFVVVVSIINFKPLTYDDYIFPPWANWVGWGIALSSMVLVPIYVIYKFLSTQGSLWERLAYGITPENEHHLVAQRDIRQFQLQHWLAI

inhibition at 1 µM [%]	SMILES
54	OC1(C(CN2CCNCC2)c2ccc(-c3ccccc3)cc2)CCCCC1 (stereo not drawn) [Example 157, 1-[1-(1,1′-biphenyl-4-yl)-2-piperazin-1-ylethyl]cyclohexanol dihydrochloride]
19	COc1ccc(C(CN2CCNCC2)C2(O)CCCCC2)cc1-c1ccc(C(F)(F)F)cc1 (stereo not drawn) [Example 253, 1-{1-[6-methoxy-4′-(trifluoromethyl)-1,1′-biphenyl-3-yl]-2-piperazin-1-ylethyl}cyclohexanol dihydrochloride]
20	COc1ccc(CCOc2ccc(C(CN3CCN(C)CC3)C3(O)CCCCC3)cc2)cc1 (stereo not drawn) [Example 466, 1-[1-{{4-[2-(4-methoxyphenyl)ethoxy]phenyl}-2-(4-methylpiperazin-1-yl)ethyl]cyclohexanoldihydrochloride]
12	OC1(C(CN2CCNCC2)c2ccccc2-c2ccc3c(c2)OCO3)CCCCC1 (stereo not drawn) [Example 151, 1-{1-[2-(1,3-benzodioxol-5-yl)phenyl]-2-piperazin-1-ylethyl}cyclohexanol dihydrochloride]
48	OC1(C(CN2CCNCC2)c2ccc(-c3cccc(F)c3)cc2)CCCCC1 (stereo not drawn) [Example 166, 1-[1-(3′-fluoro-1,1′-biphenyl-4-yl)-2-piperazin-1-ylethyl]cyclohexanol dihydrochloride]
94	C[C@@H]1CN(C[C@H](c2cccc(OC(F)(F)F)c2)C2(O)CCCCC2)C[C@H](C)N1 [Example 367, 1-{(1S)-2-[(3R,5S)-3,5-dimethylpiperazin-1-yl]-1-[3-(trifluoromethoxy)phenyl]ethyl}cyclohexanol dihydrochloride]
45	OC1(C(CN2CCNCC2)c2cccc(-c3cccc(Cl)c3)c2)CCCCC1 (stereo not drawn) [Example 139, 1-[1-(3′-chloro-1,1′-biphenyl-3-yl)-2-piperazin-1-ylethyl]cyclohexanol dihydrochloride]
27	CCOc1ccc(C(CN2CCN(C)CC2)C2(O)CCCCC2)cc1OC(F)(F)F (stereo not drawn) [Example 405, 1-[1-[4-ethoxy-3-(trifluoromethoxy)phenyl]-2-(4-methylpiperazin-1-yl)ethyl]cyclohexanol dihydrochloride]
-3	OC1(C(CN2CCNCC2)c2cccc(OCc3ccccc3)c2)CCC1 (stereo not drawn) [Example 111, 1-{1-[3-(benzyloxy)phenyl]-2-piperazin-1-ylethyl}cyclobutanol dihydrochloride]
82	OC1(C(CN2CCNCC2)c2ccc(OCc3ccccc3)cc2)CCCCC1 (stereo not drawn) [Example 27, 1-{1-[4-(benzyloxy)phenyl]-2-piperazin-1-ylethyl}cyclohexanol dihydrochloride]
35	C[C@@H]1CCC(O)(C(CN2CCNCC2)c2cccc(OC(F)(F)F)c2)C1 (stereo partly drawn) [Example 394, (3R)-3-methyl-1-{2-piperazin-1-yl-1-[3-(trifluoromethoxy)phenyl]ethyl}cyclopentanol dihydrochloride]
30	COc1cc(C(CN2CCN(C)CC2)C2(O)CCCCC2)cc(Br)c1OCc1ccccc1 (stereo not drawn) [Example 391, 1-[1-[4-(benzyloxy)-3-bromo-5-methoxyphenyl]-2-(4-methylpiperazin-1-yl)ethyl]cyclohexanol dihydrochloride]
42	COc1ccc(C(CN2CCNCC2)C2(O)CCCCC2)cc1OC(F)(F)F (stereo not drawn) [Example 402, 1-{1-[4-methoxy-3-(trifluoromethoxy)phenyl]-2-piperazin-1-ylethyl}cyclohexanol dihydrochloride]
68	CN1CCN(CC(c2ccc(OCc3ccc(C(F)(F)F)cc3)c(Cl)c2)C2(O)CCCCC2)CC1 (stereo not drawn) [Example 420, 1-[1-(3-chloro-4-{[4-(trifluoromethyl)benzyl]oxy}phenyl)-2-(4-methylpiperazin-1-yl)ethyl]cyclohexanol dihydrochloride]
38	CN1CCN(CC(c2ccc(OCc3ccc(C(F)(F)F)cc3)cc2)C2(O)CCCCC2)CC1 (stereo not drawn) [Example 437, 1-[2-(4-methylpiperazin-1-yl)-1-(4-{[4-(trifluoromethyl)benzyl]oxy}phenyl)ethyl]cyclohexanol dihydrochloride]
90	C[C@@H]1CN(C[C@H](c2cccc(OC(F)(F)F)c2)C2(O)CCCCC2)CCN1 [Example 369, 1-{(1S)-2-[(3R)-3-methylpiperazin-1-yl]-1-[3-(trifluoromethoxy)phenyl]ethyl}cyclohexanol dihydrochloride]
-10	CN1CCN(CC(c2cccc(OCc3ccccc3)c2)C2(O)CCC2)CC1 (stereo not drawn) [Example 115, 1-[1-[3-(benzyloxy)phenyl]-2-(4-methylpiperazin-1-yl)ethyl]cyclobutanol dihydrochloride]
69	OC1(C(CN2CCNCC2)c2ccc(OCc3cccc(C(F)(F)F)c3)cc2)CCCCC1 (stereo not drawn) [Example 438, 1-[2-piperazin-1-yl-1-(4-{[3-(trifluoromethyl)benzyl]oxy}phenyl)ethyl]cyclohexanol dihydrochloride]
22	COc1cc(C(CN2CCN(C)CC2)C2(O)CCCCC2)ccc1OCc1ccc2ccccc2c1 (stereo not drawn) [Example 445, 1-[1-[3-methoxy-4-(2-naphthylmethoxy)phenyl]-2-(4-methylpiperazin-1-yl)ethyl]cyclohexanol dihydrochloride]
47	COc1ccc(C(CN2CCNCC2)C2(O)CCCCC2)cc1-c1cccc(OC(F)(F)F)c1 (stereo not drawn) [Example 251, 1-{1-[6-methoxy-3′-(trifluoromethoxy)-1,1′-biphenyl-3-yl]-2-piperazin-1-ylethyl}cyclohexanol dihydrochloride]
63	OC1(C(CN2CCNCC2)c2ccc(OCc3ccc(C(F)(F)F)cc3)cc2)CCCCC1 (stereo not drawn) [Example 436, 1-[2-piperazin-1-yl-1-(4-{[4-(trifluoromethyl)benzyl]oxy}phenyl)ethyl]cyclohexanol dihydrochloride]
32	OC1(C(CN2CCNCC2)c2cccc(-c3ccc(C(F)(F)F)cc3)c2)CCCCC1 (stereo not drawn) [Example 249, 1-{2-piperazin-1-yl-1-[4′-(trifluoromethyl)-1,1′-biphenyl-3-yl]ethyl}cyclohexanol dihydrochloride]
93.9	CN1CCN(C[C@@H](c2ccc(OCc3ccccc3)c(Cl)c2)C2(O)CCCCC2)CC1 [Example 325, 1-[(1R)-1-[4-(benzyloxy)-3-chlorophenyl]-2-(4-methylpiperazin-1-yl)ethyl]cyclohexanol dihydrochloride]
82	CN1CCN(CC(c2ccc(OCCc3ccccc3)cc2)C2(O)CCCCC2)CC1 (stereo not drawn) [Example 460, 1-{2-(4-methylpiperazin-1-yl)-1-[4-(2-phenylethoxy)phenyl]ethyl}cyclohexanol dihydrochloride]

Same assay, conditions: MDCK-Net6, read-out: % Inhibition @ 1 μM (hNET), 1 μM test compound, [3H]NE uptake

SMILES	inhibition at 1 µM [%]
CN1CCN(CC(c2ccc(OC(F)(F)F)cc2)C2(O)CCCCC2)CC1 (stereo not drawn) [Example 283, 1-{2-(4-methylpiperazin-1-yl)-1-[4-(trifluoromethoxy)phenyl]ethyl}cyclohexanol dihydrochloride]	70.7

Same assay, conditions: [3H]NE uptake, test range 1 to 10,000 nM

EC50 [nM]	SMILES
398	CN1CCN(CC(c2ccc(OCc3ccccc3)c(OC(F)(F)F)c2)C2(O)CCCCC2)CC1 (stereo not drawn) [Example 408, 1-[1-[4-(benzyloxy)-3-(trifluoromethoxy)phenyl]-2-(4-methylpiperazin-1-yl)ethyl]cyclohexanol dihydrochloride]
470	OC1(C(CN2CCNCC2)c2ccc(OCc3ccccc3)cc2)CCCCC1 (stereo not drawn) [Example 27, 1-{1-[4-(benzyloxy)phenyl]-2-piperazin-1-ylethyl}cyclohexanol dihydrochloride]
